Results on 15 compounds are retold here after ChEMBL document CHEMBL5233274, “Current Landscape and Future Perspective of Oxazolidinone Scaffolds Containing Antibacterial Drugs” (J Med Chem, 2021).

Common to all, as to format: functional
Assay [1] deals with Pseudomonas aeruginosa. In words: Antibacterial activity against Pseudomonas aeruginosa assessed as inhibition of bacterial growth by CLSI protocol based microdilution assay.
In assay [2] the test system is Escherichia coli. In words: Antibacterial activity against Escherichia coli assessed as inhibition of bacterial growth incubated for 18 hrs by CLSI protocol based method.
The subject of assay [3] is Pseudomonas aeruginosa. In words: Antibacterial activity against Pseudomonas aeruginosa assessed as inhibition of bacterial growth incubated for 18 hrs by CLSI protocol based method.
The test system of assay [4] is Escherichia coli. In words: Antimicrobial activity against Escherichia coli assessed as inhibition zone at 200 ug/ml incubated for 24 hrs by disk diffusion method. The settings on record: read-out: IZ.
The subject of assay [5] is Bacillus subtilis. In words: Antimicrobial activity against Bacillus subtilis assessed as inhibition zone at 200 ug/ml incubated for 24 hrs by disk diffusion method. The note with it: read-out: IZ.
The test system of assay [6] is Fusarium oxysporum. In words: Antimicrobial activity against Fusarium oxysporum assessed as inhibition zone at 200 ug/ml incubated for 24 hrs by disk diffusion method. The note with it: read-out: IZ.
Assay [7] relates to Staphylococcus aureus. In words: Antibacterial activity against methicillin-resistant Staphylococcus aureus WIS 441 infected in Galleria mellonella larvae incubated for 6 days. The settings on record: time 6 day.
The subject of assay [8] is Streptococcus sp. In words: Antibacterial activity against wild-type beta-hemolytic Streptococcus sp. by broth dilution assay.
Assay [9] has as its system Streptococcus sp. In words: Antibacterial activity against wild-type Streptococcus sp. by broth dilution assay.
Assay [10] deals with Streptococcus sp. In words: Antibacterial activity against linezolid-resistant Streptococcus sp. by broth dilution assay.
In assay [11] the test system is Staphylococcus aureus. In words: Antibacterial activity against Staphylococcus aureus assessed as fold increase relative to linezolid.
Assay [12] concerns Enterococcus. In words: Antibacterial activity against Enterococcus assessed as fold increase relative to linezolid.
Assay [13] has as its system Bacillus subtilis. In words: Antibacterial activity against Bacillus subtilis assessed as inhibition of bacterial growth measured per 100 uL incubated for 24 hrs by agar well diffusion method.
In assay [14] the test system is Staphylococcus aureus. In words: Antibacterial activity against Staphylococcus aureus assessed as inhibition of bacterial growth measured per 100 uL incubated for 24 hrs by agar well diffusion method.
Assay [15] concerns Escherichia coli. In words: Antibacterial activity against Escherichia coli assessed as inhibition of bacterial growth measured per 100 uL incubated for 24 hrs by agar well diffusion method.
The subject of assay [16] is Pseudomonas aeruginosa. In words: Antibacterial activity against Pseudomonas aeruginosa assessed as inhibition of bacterial growth measured per 100 uL incubated for 24 hrs by agar well diffusion method.
The subject of assay [17] is Candida albicans. In words: Antifungal activity against Candida albicans assessed as inhibition of fungal growth incubated measured per 100 uL incubated for 24 hrs by agar well diffusion method.
For assay [18], the system named is Saccharomyces cerevisiae. In words: Antifungal activity against Saccharomyces cerevisiae assessed as inhibition of fungal growth incubated measured per 100 uL incubated for 24 hrs by agar well diffusion method.
Assay [19] has as its system Escherichia coli. In words: Antibacterial activity against Escherichia coli assessed as zone of inhibition at 100 ug/ml. The settings on record: read-out: IZ.

≈ marks a conversion by molar mass, not a printed value. Where “and” joins values, the source holds several entries; their conditions need not be identical. Equal entries are not always repeated.

With `COc1ccc(NC(=S)Nc2ccc(C[C@H]3COC(=O)N3)cc2)cc1`, the MIC in assay [1] was found to be 50 µg/mL (≈ 140 µM).
Consider `O=C(NO)[C@@H]1CN(c2ccc(C#CC#Cc3ccccc3)cc2)C(=O)O1`, for which the MIC in assay [2] is 0.12 µg/mL (≈ 0.346 µM); in assay [3], over 10 µg/mL.
Regarding `COc1ccc(/C=C2\OC3(COC(=O)N3)N(CCCNc3ccnc4cc(Cl)ccc34)C2=O)cc1` (centres undefined), the zone of inhibition at 200 µg/mL was 11 mm in assay [4], 10 mm in [5] and 9 mm in assay [6].
Turning to `Cn1nnc(-c2ccc(-c3ccc(N4C[C@H](CO)OC4=O)cc3F)cn2)n1` [TEDIZOLID], the MED in assay [7] stood at 2 mg/L. Besides, the MIC90 in assay [8] is 0.25 µg/mL (≈ 0.675 µM); in assay [9], 0.25 µg/mL (≈ 0.675 µM); in [10], 8 µg/mL (≈ 21.6 µM). Moreover, the “fold change (FC)” value in assay [11] and in [12] was 4 in each case.
Turning to `O=C1NC2(CO1)O/C(=C\c1ccc([N+](=O)[O-])cc1)C(=O)N2CCCNc1ccnc2cc(Cl)ccc12` (centres undefined), the zone of inhibition at 200 µg/mL in assay [4], in assay [5] and in assay [6] was 14 mm in each case.
`O=C1NC(Cc2ccc(Nc3nc(-c4ccc(Br)cc4)cs3)cc2)CO1` (centres undefined): the MIC in assay [13] stood at 6.25 µg; in [14] it was 6.25 µg; in assay [15], 12.5 µg; in [16], 12.5 µg; in [17] it was 12.5 µg; in [18] it was 12.5 µg.
On to `O=C1NC(Cc2ccc(Nc3nc(-c4ccccc4F)cs3)cc2)CO1` (centres undefined), for which the MIC in assay [13], in [14], in [15], in [16], in assay [17] and in assay [18] was 12.5 µg each time.
Regarding `CCCN1C(=O)C(N2C(=O)OCC2Cc2ccc(/N=C/c3ccccc3)cc2)C1c1ccc(Cl)cc1Cl` (centres undefined), the zone of inhibition at 100 µg/mL in assay [19] worked out at 24 mm.
With `CNS(=O)(=O)c1ccc(C#CC#Cc2ccc(N3C[C@@H](C(=O)NO)OC3=O)cc2)cc1`, the values for the MIC in assay [2] and in [3] were 0.078 µg/mL (≈ 0.177 µM) and over 10 µg/mL, respectively.
`O=C1NC(Cc2ccc(Nc3nc(-c4ccc(Cl)cc4)cs3)cc2)CO1` (centres undefined): the MIC in assay [13] came to 6.25 µg; in assay [14] it was 6.25 µg; in assay [15] it was 12.5 µg; in assay [16], 12.5 µg; in assay [17], 12.5 µg; in [18], 12.5 µg.
For the compound `O=C(NO)[C@@H]1CN(c2ccc(-c3ccccc3)cc2)C(=O)O1`, the figures for the MIC in assay [2] and in [3] were 50 µg/mL (≈ 168 µM) and over 10 µg/mL, respectively.
As to `O=C1NC(Cc2ccc(Nc3nc(-c4c(O)oc(O)cc4=O)cs3)cc2)CO1` (centres undefined), the MIC in assay [13] is 25 µg; in assay [14], 6.25 µg; in [15], 12.5 µg; in assay [16], 6.25 µg; in assay [17], 12.5 µg; in assay [18] (24 h) it was 12.5 µg and 6.25 µg.
For `O=C(NO)[C@@H]1CN(c2ccc(C#Cc3ccccc3)cc2)C(=O)O1`, the results for the MIC in assay [2] and in assay [3] were 0.625 µg/mL (≈ 1.94 µM) and over 10 µg/mL, respectively.
Turning to `O=C1NC(Cc2ccc(Nc3nc(-c4ccc([N+](=O)[O-])cc4)cs3)cc2)CO1` (centres undefined), the MIC in assay [13] came out at 6.25 µg; in [14] it was 6.25 µg; in assay [15], 12.5 µg; in assay [16], 12.5 µg; in [17], 12.5 µg; in [18] it was 12.5 µg.
On to `O=C(NO)[C@@H]1CN(c2ccc(C#CC#CC3CC3)cc2)C(=O)O1`, for which the MIC was 0.03 µg/mL (≈ 0.0967 µM) in assay [2] and over 10 µg/mL in assay [3].
